Here are results for 1 molecule from US20240050409A1, “Methods and Compositions for Treating Psychotic Disorders” (SOUND PHARMACEUTICALS INCORPORATED, priority 2014, published 2024).

SMILES strings stand for the structures. Entries after “also recorded” stand apart in the source; their conditions may differ.

The subject of the experiment is PV immunoreactive interneurons (PVI) in the PFC of NVHL rats. Put plainly: PV interneuron counts (stereology) in PFC of NVHL rats. In kind it is in vivo, Sprague-Dawley rats. To be noted: adult (P61) NVHL rats; drinking water 900 mg/l, P5 to P50. The protocol: This example describes reversal of prepulse inhibition through treatment of ebselen. One of the most replicated findings in schizophrenia research is a reduction of markers associated with cortical inhibitory interneurons (Lewis et al., 2012). […] Whether parvalbumin (PV) positive interneurons in the PFC, including the dorsal prelimbic and anterior cingulate cortex (ACC), are altered in NVHL rats using unbiased stereological counting techniques was assessed. Between postnatal day (P) 21 and P61, the number of PV immunoreactive interneurons (PVI) increased in sham-operated rats, but not in NVHL rats as illustrated in FIGS. 7A and 1B.
Animals: Timed-pregnant Sprague-Dawley rats were obtained at gestational days 13-15 from Charles River (Wilmington, MA) and were individually housed with free access to food and water in a temperature- and humidity-controlled environment with a 12:12h light/dark cycle (lights on at 7:00 AM). When pups reached P5, half of the dams received NAC in their drinking water. Pups were left undisturbed until P7-9 when healthy offspring were randomly separated and received either NVHL or sham surgery. At P21, male and female pups were either transcardially perfused with 4% paraformaldehyde for immunocytochemistry or weaned and housed in groups of two to three, counterbalanced across lesion status. NAC treatment lasted throughout adolescence until P50. […]

Consider `CC(=O)N[C@@H](CS)C(=O)O` [NAC, N-acetyl cysteine], for which the “effect on PVI count reduction in PFC” value was “prevented; also recorded: rescued”.
